From patent EP4696691A1, “TRICYCLIC COMPOUND, AND PREPARATION METHOD THEREFOR AND USE THEREOF” (Shanghai Huilun Pharmaceutical Co., Ltd., priority 2023, dated 2024)
pIC50: −log10 of the molar value. Read-outs that look alike come from different tables or passages of the source.

Experiments:
[1] = Pharmacokinetic behavior in mice (plasma concentration by LC-MS/MS); assay type: in vivo; details: male ICR mice
Protocol: (§1) Three healthy ICR mice (SPF grade, from Beijing Vital River Laboratory Animal Technology Co., Ltd.), male, weighing 18-25 g, were intravenously injected with a compound (1 mg/kg) at a volume of 5 mL/kg. The compound was prepared using 5% DMSO+10% Solutol+85% Saline (w/v), and the animals were not fasted before the experiment.
as §1, with “were intragastrically administered” for “were intravenously injected with”, “compound (5” for “compound (1”, “of 10” for “of 5”
Blood samples (about 0.05 mL each) were collected from the cheeks at 5 min, 15 min, 30 min, 1 h, 2 h, 4 h, 6 h, 8 h, and 24 h after intravenous administration, and at 5 min, 15 min, 30 min, 1 h, 2 h, 4 h, 6 h, 8 h, and 24 h after intragastrical administration, and anticoagulated with heparin sodium. Following collection, the blood samples were placed on ice and the plasma was centrifuged within 1 h (centrifugation conditions: 6,000 g, 3 min, 2 °C to 8°C). The concentration of the compounds in the plasma was determined by liquid chromatography tandem mass spectrometry. The plasma samples were stored in a -80°C freezer before analysis. With plasma concentration data at different time points, pharmacokinetic parameters were calculated by Phoenix WinNonlin8.2.0, and the results are shown in Table 4: Table 4

[2] = system: LPS induced IL-6 release in human PBMC cells; assay: Inhibition of LPS induced IL-6 release in human PBMC cells (IL-6 HTRF assay); assay type: cell-based; details: 2 h compound pre-incubation, LPS 5 ng/mL for 4 h, IL-6 in supernatant
Protocol: I. Recovery and seeding of PBMC, and treatment of compounds (human PBMC cells were purchased from Oricell, item number: Fpb003F)
• 1. Preparation of compounds Sample dilutions of a series of concentrations were obtained by dilution in DMSO using Bravo, and then 80 nL was transferred into a cell plate using ECHO. The final concentration of DMSO in the cell culture medium is 0.1%. • 2. Frozen cells were quickly thawed in a 37°C water bath and stirred continuously. • 3. 25 mL of fresh preheated culture medium was added into a 50 mL centrifuge tube, and then the cells were added dropwise. Then the cells were centrifuged at 2,000 rpm for 10 min. • 4. […] The total number of cells required was calculated based on cell concentration to perform the assay. 7×10e4 cells were added per well (70 µL). • 6. The cell plate was placed and incubated in a 5% CO2 incubator at 37°C for 2 h.
• 1. LPS: A stock solution (1 mg/mL) was diluted in dH2O, aliquoted, and stored at -80°C. • 2. 8-fold LPS was added per well (10 µl/well) (with a final concentration of 5 ng/mL). The cells were incubated in a 5% CO2 incubator at 37°C for 4 h. • 3. 70 µl of supernatant was collected per well using Bravo, and then IL-6 HTRF assay was performed. The supernatant may be stored at -80°C.
1. Preparation of standards and sample dilutions. 2. 16 µL of each sample was taken using Bravo and added to wells. Then 16 µL of each standard was taken and added to corresponding wells. 3.4 µL of a premixed IL6 antibody working solution was added to each of all wells. 4. The cell plate was sealed and incubated at room temperature for 2 h. 5.

[3] = biological target: T1, IRAK4-HiBiT fusion protein (Homo sapiens, UniProt Q9NWZ3); assay: Detection of HiBiT-IRAK4 proteolysis levels in K562 IRAK4-HiBiT cells (Nano-Glo HiBiT Lytic assay); assay type: cell-based
T1 construct: K562 from ATCC
T1 sequence (Q9NWZ3 1-460): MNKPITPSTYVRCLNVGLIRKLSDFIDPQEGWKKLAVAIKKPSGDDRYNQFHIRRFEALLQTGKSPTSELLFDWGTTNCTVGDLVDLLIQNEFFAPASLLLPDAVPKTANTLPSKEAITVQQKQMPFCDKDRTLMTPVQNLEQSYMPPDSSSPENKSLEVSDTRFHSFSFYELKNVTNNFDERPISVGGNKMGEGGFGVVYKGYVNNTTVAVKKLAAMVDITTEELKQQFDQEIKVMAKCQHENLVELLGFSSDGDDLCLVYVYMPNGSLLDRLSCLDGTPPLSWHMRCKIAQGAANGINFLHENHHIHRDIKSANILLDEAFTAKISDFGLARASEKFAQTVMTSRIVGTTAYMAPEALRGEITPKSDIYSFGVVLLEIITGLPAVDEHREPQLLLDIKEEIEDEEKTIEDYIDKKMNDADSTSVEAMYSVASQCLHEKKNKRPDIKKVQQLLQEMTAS
Protocol: Test Example 1 Detection of HiBiT-IRAK4 proteolysis levels in K562 IRAK4-HiBiT cells co-incubated with compounds of the present application • Reagents, devices, and consumables in experiments: • Nano-Glo Lytic Detection Assay, purchased from Promega; • EnVision, purchased from PerkinElmer; • Name of cell line: K562 IRAK4-HiBiT stable transformation cell strain (capable of stably expressing IRAK4-HiBiT fusion protein), constructed by Shanghai Bioduro Biologics Co., Ltd., where a K562 cell strain was purchased from ATCC. The culture medium is IMDM+10% FBS+1% P/S (volume percentage, where FBS is fetal bovine serum and P/S is Penicillin-Streptomycin, a 1:1 mixture of penicillin and streptomycin antibiotic solution (10,000 units/mL)).
Cell culture: K562 IRAK4-HiBiT cells were incubated at 37°C, and passaged every 2-3 d, with a seeding density of 200,000 cells/mL.
IRAK4-HiBiT proteolysis experiment: • Step 1: Cell seeding and treatment of compound • 1. A 10 mM compound mother liquor was prepared using DMSO, and a compound solution with a working concentration of 1,000 times (the highest working concentration is 10 µM, diluted 3.162 times, with a total of 10 concentration gradients) was prepared using Bravo automatic liquid processing platform. • 2. 40 nL of a compound working solution was transferred to a 384 well plate, and an equal volume of DMSO was added to positive control wells. • 3. 20 µL of a culture solution was added per well and shaken for 10 min. • 4.20 µL of a K562 IRAK4-HiBiT cell suspension was added per well (6,000 cells/well), and an equal volume of culture medium was added to negative control wells. • 5. The well plate was rotated at 1,000 rpm for 1 min. • 6. The cells were incubated in a 5% CO2 incubator at 37°C for 2 h or 6 h. • Step 2: HiBiT Lytic experiment • 1. The well plate was placed at room temperature to equilibrate for 30 min. • 2. 20 µL of Nano-Glo HiBiT Lytic reagent (trade name: Nano-Glo® HiBiT Lytic Detection Reagent) and the well plate was kept in the dark. • 3. The well plate was placed on an orbital shaker at 300 rpm for 5 min. • 4. The cells were incubated at room temperature for 10 min. • 5. The luminous value was read by Envision. • 6. Data was calculated and processed. Degradation degree%=(negative control - experimental well)/(negative control - positive control) * 100%. Using XL-fit software, a degradation curve was obtained by fitting using a 4 Parameter Logistic Model, and the values of Relative DC50 (nM) and Absolute DC50 (nM) were obtained.

[4] = Intragastric administration (5 mg/kg), 5 mg/kg
[5] = Intravenous injection (1 mg/kg), 1 mg/kg
[6] = 2 h incubation, read-out: Absolute DC50
[7] = 2 h incubation, read-out: Relative DC50
[8] = Intragastric administration (5 mg/kg)
[9] = Intravenous injection (1 mg/kg)
[10] = mouse, plasma, po, Intragastric administration (5 mg/kg)
[11] = mouse, plasma, Intravenous injection (1 mg/kg)
[12] = 6 h incubation, read-out: Absolute DC50
[13] = 6 h incubation, read-out: Relative DC50

Row | Compound | Dmax ([3]; 2 h incubation) [%] | DC50 [3, 6] [nM] | DC50 [3, 7] [nM] | AUClast [1, 8] [ng·h/mL] | Cmax [1, 8] [ng/mL] | F% [1, 8] [%] | T1/2 [1, 8] [h] | AUClast [1, 9] [ng·h/mL] | CL [1, 9] [mL/min/kg] | Cmax [1, 9] [ng/mL] | Vss [1, 9] [L/kg] | pIC50 [2] | Dmax ([3]; 6 h incubation) [%] | other results
1 | CC(C)(O)c1cc2nn([C@H]3CC[C@H](CCN4CCN5c6ccc(C7CCC(=O)NC7=O)cc6OC[C@@H]5C4)CC3)cc2cc1NC(=O)c1cccc(C(F)(F)F)n1 (some centres unmarked) [Compound 1-a] | 90 | 0.42 | 0.58 | 19336 | 1067 | 31.7 | 17.5 | 8794 | 1.25 | 832 | 1.64 | 9.04 |  | 
2 | CC(C)(O)c1cc2nn([C@H]3CC[C@H](CCN4CCN5c6ccc(C7CCC(=O)NC7=O)cc6OC[C@H]5C4)CC3)cc2cc1NC(=O)c1cccc(C(F)(F)F)n1 (some centres unmarked) [Compound 1-b] | 88 | 0.54 | 0.71 | 44547 | 2623 | 79.5 | 15.3 | 11208 | 1.0 | 1083 | 1.23 | 9.07 |  | 
3 | CC(C)(O)c1cc2nn([C@H]3CC[C@H](CCN4CCN5c6ccc(C7CCC(=O)NC7=O)cc6OCC5C4)CC3)cc2cc1NC(=O)c1cccc(C(F)(F)F)n1 (some centres unmarked) [Compound 1] |  |  |  | 82491 | 5153 | 93.86 | 8.03 | 12937 | 0.905 | 1740 | 1.05 | 8.94 | 91.1 | DC50 ([3]; read-out: Absolute DC50, 6 h incubation): 0.61 nM; DC50 ([3]; read-out: Relative DC50, 6 h incubation): 0.46 nM
4 | CC(C)(O)c1cc2nn([C@H]3CC[C@H](CCN4CCN5c6c(F)cc(C7CCC(=O)NC7=O)cc6OCC5C4)CC3)cc2cc1NC(=O)c1cccc(C(F)(F)F)n1 (some centres unmarked) [Compound 4] | 90 | 9.85 | 8.71 |  |  |  |  |  |  |  |  | 8.39 |  | AUC(0-t) [1, 10]: 34200 ng·h/mL; bioavailability [1, 10]: 60.1%; half-life [1, 10]: 14.8 h; Cmax ([1]; mouse, plasma, po, Intragastric administration (5 mg/kg), read-out: Cmax): 2130 ng/mL; AUC(0-t) [1, 11]: 10500 ng·h/mL; clearance [1, 11]: 1.27 mL/min/kg; Cmax ([1]; mouse, plasma, Intravenous injection (1 mg/kg), read-out: Cmax): 1320 ng/mL; Vd ([1]; mouse, plasma, Intravenous injection (1 mg/kg), read-out: Vss): 1.07 L/kg
5 | CC(C)(O)c1cc2nn([C@H]3CC[C@H](CCN4CCC5(CC4)OCc4cc(C6CCC(=O)NC6=O)ccc45)CC3)cc2cc1NC(=O)c1cccc(C(F)(F)F)n1 (some centres unmarked) [Compound 47] |  |  |  |  |  |  |  |  |  |  |  | 9.28 | 93 | DC50 [3, 12]: 0.65 nM; DC50 [3, 13]: 0.54 nM
6 | CC(C)Oc1cc2nc([C@H]3CC[C@H](CCN4CCC5(CC4)OCc4cc(C6CCC(=O)NC6=O)ccc45)CC3)cn2cc1C(=O)Nc1cnn2cccnc12 (some centres unmarked) [Compound 94] |  |  |  |  |  |  |  |  |  |  |  | 7.19 | 97 | DC50 [3, 12]: 3.82 nM; DC50 [3, 13]: 3.97 nM
7 | CN1C(=O)C2(CCN(CC[C@H]3CC[C@H](n4cc5cc(NC(=O)c6cccc(C(F)(F)F)n6)c(C(C)(C)O)cc5n4)CC3)CC2)c2ccc(C3CCC(=O)NC3=O)cc21 (some centres unmarked) [Compound 121] | 92 | 14 | 10.8 |  |  |  |  |  |  |  |  | 10.00 |  | 

Now from value to compound, other results behind:

Row | Dmax ([3]; 2 h incubation) [%] | DC50 [3, 6] [nM] | DC50 [3, 7] [nM] | AUClast [1, 8] [ng·h/mL] | Cmax [1, 8] [ng/mL] | F% [1, 8] [%] | T1/2 [1, 8] [h] | AUClast [1, 9] [ng·h/mL] | CL [1, 9] [mL/min/kg] | Cmax [1, 9] [ng/mL] | Vss [1, 9] [L/kg] | Compound | pIC50 [2] | Dmax ([3]; 6 h incubation) [%] | other results
8 | 93 | 23.7 | 21.4 |  |  |  |  |  |  |  |  | CC(C)(O)c1cc2nn([C@H]3CC[C@H](CCN4CCN5c6ccc(C7(C)CCC(=O)NC7=O)cc6OC[C@H]5C4)CC3)cc2cc1NC(=O)c1cccc(C(F)(F)F)n1 (single isomer, unassigned) [Compound 120-b-2] | 9.12 |  | AUClast [1, 4]: 24277 ng·h/mL; Cmax [1, 4]: 1790 ng/mL; F% [1, 4]: 98.6%; T1/2 [1, 4]: 9.45 h; AUClast [1, 5]: 4925 ng·h/mL; CL [1, 5]: 3.03 mL/min/kg; Cmax [1, 5]: 725 ng/mL; Vss [1, 5]: 1.80 L/kg
9 |  |  |  | 3815 | 207 | 68.7 | 27.3 | 932 | 6.80 | 128 | 21.4 | COc1cc2nn([C@H]3CC[C@H](CCN4CCC5(CC4)OCc4cc(C6CCC(=O)NC6=O)ccc45)CC3)cc2cc1NC(=O)c1cccc(C(F)(F)F)n1 (some centres unmarked) [Compound 46] | 7.86 | 93.6 | DC50 [3, 12]: 0.92 nM; DC50 [3, 13]: 0.79 nM
10 | 89 | 17.6 | 17.6 |  |  |  |  |  |  |  |  | CC(C)Oc1cc2nc([C@H]3CC[C@H](CCN4CCN5c6ccc(C7CCC(=O)NC7=O)cc6OCC5C4)CC3)cn2cc1C(=O)Nc1cnn2cccnc12 (some centres unmarked) [Compound 100] | 9.19 |  | 
11 | 89 | 16.8 | 16.1 |  |  |  |  |  |  |  |  | CC(C)(O)c1cc2nn(C3CCC(CCN4CCN5c6c(F)cc(NC7CCC(=O)NC7=O)cc6OCC5C4)CC3)cc2cc1NC(=O)c1cccc(C(F)(F)F)n1 (centres unmarked) [Compound 113] | 9.72 |  | 
